# According to patent publication US10487054B2, “Therapeutic compounds” (REGENTS OF THE UNIVERSITY OF MINNESOTA, priority 2017, dated 2019):
# Test system: SKH-1 hairless mice
# Assay: SUV-induced mouse skin tumorigenesis, late-stage prevention model
# Assay type: in vivo
# Method: Tumor volume was calculated according to the following formula: tumor volume (mm^3)=length×width×height×0.52. […] For 5B and 5C, data are represented as mean values±S.D. and differences were determined by one-way ANOVA. The asterisk (*) indicates a significant decrease compared to the group exposed to SUV only or the group treated with vehicle followed by SUV (***, p<0.001). […] Dorsal trunk skin samples were harvested and stained with H&E (left panels) or with an antibody to detect PCNA (right panels). […] Expression of PCNA was quantified using Image-Pro Plus software and stained cells were counted from 5 separate areas on each slide (lower panel). An average of 3 samples was calculated per group. Data are expressed as mean percent of control±S.D. and the asterisks indicate a significant difference in PCNA expression (***, p<0.001). […] The expression levels of phosphorylated and total proteins were analyzed by Western blot.
# Mice were weighed once a week until week 28. […] SKH-1 hairless mice were treated as described in Materials and Methods. The mice in the control groups (n=9) received no vehicle/no SUV (n=3), vehicle/no SUV (n=3), or 1 mg compound 1/no SUV (n=3), respectively. The mice in the rest of the groups received SUV irradiation for 15 weeks 3 times a week. The mice in the vehicle/SUV-treated group (n=12) were treated with oil-in-water emulsion cream 3 times a week until the end of the experiment (28 weeks). The mice in the 0.1 mg/SUV or 1 mg/SUV groups (n=12 each) received treatment with compound 1 (0.1 or 1 mg, respectively) 3 times a week until the end of the experiment (28 weeks). The respective doses of oil-in-water emulsion cream or compound 1 were applied topically to the dorsal area. Tumor incidence and multiplicity were recorded weekly until the end of the experiment at week 28.
# Female SKH-1 hairless mice were purchased from Charles River and were acclimated for 2 weeks before the study and had free access to food and water. All animals were maintained according to the guidelines approved by the University of Minnesota Institutional Animal Care and Use Committee (IACUC). The animals were housed in climate-controlled quarters with a 12-h light/dark cycle. The skin carcinogenesis experiments were conducted using 6-8 wk old mice with a mean body weight of 25 g. Skin carcinogenesis was induced by a solar simulated ultraviolet irradiation system. The SUV irradiation source (Q-Lab Corporation, Westlake, Ohio) emitted at wavelengths of 295 to 365 nm and the peak emission was 340 nm.
# For the late-stage prevention model, the control and experimental groups were identical to those for the early prevention model. However, the experimental groups of mice were exposed to SUV irradiation 3 times a week for 15 weeks without application of vehicle or compound 1 in vehicle. At the end of 15 weeks, SUV exposure was stopped and application of vehicle with or without compound 1 was begun and continued for 13 weeks until week 28 at which time the study was discontinued and mice euthanized and tissues harvested.
# At week 1, mice were irradiated with SUV at a dose of 36 kJ/m^2 UVA and 1.8 kJ/m^2 UVB. At week 6, the dose of SUV reached 60 kJ/m^2 UVA and 2.9 kJ/m^2 UVB and this dose was maintained from week 6 to week 15. The respective doses of vehicle or compound 1 were applied topically to the dorsal area. Mice were weighed and tumors were measured once a week until week 28 or when tumor load reached 1 cm^3 total volume. At that time mice were euthanized and one-half of each sample was immediately fixed in 10% formalin and processed for hematoxylin and eosin (H&E) staining and immunohistochemistry. The other one-half of the sample was frozen and used for Western blot analysis.
# Skin tissues were embedded in paraffin and subjected to immunohistochemistry. Tissues were de-paraffinized and hydrated and then permeabilized with 0.5% Triton X-100/1×PBS for 10 min. […]
# [1] = late-stage model, topical 0.1 or 1 mg, vs vehicle-treated group, 28 weeks
smiles,measurement,setting,value
"O=C1Nc2ccc(C34CC5CC(CC(C5)C3)C4)cc2C1=NO [compound 1, 5-(adamantan-1-yl)-3-(hydroxyimino)indolin-2-one]",epidermal thickness,"late-stage model, H&E",dramatically decreased
same,formation of SCCs,"late-stage model, H&E",inhibited
same,"SUV-induced phosphorylation of ERK1/2, p38, and JNKs in mouse skin","late-stage model, Western blot",dramatically suppressed
same,expression of PCNA,"late-stage model, immunohistochemistry of skin",decreased
same,tumor multiplicity,[1],significantly reduced
same,tumor volume,[1],significantly reduced
same,malignancy rate,"late-stage model, vs vehicle-treated mice",significantly decreased
same,SUV-induced tumor incidence,late-stage prevention group,substantial suppression
same,body weight,"topical application on dorsal skin, late-stage model, to week 28",no effect on body weight
